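Grown in 96-well plates, cells were treated for 48 hours with each compound at five concentrations. Insufficient inhibition: endpoint recorded as highest concentration tested. At the TGI there is no net growth.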
Assays:
Experiment in all cases: DTP human tumour cell line panel, 48 h
[1] = system: SNB-19 CNS
[2] = system: SNB-78 CNS
[3] = system: M19-MEL melanoma
[4] = system: MOLT-4 leukemia
[5] = system: TK-10 renal
[6] = system: SK-MEL-5 melanoma
[7] = system: A549 NSCLC
[8] = system: CAKI-1 renal
[9] = system: SK-MEL-28 melanoma
[10] = system: M14 melanoma
[11] = system: DMS 114 small cell lung
[12] = system: SK-MEL-2 melanoma
[13] = system: NCI-H522 lung
[14] = system: ACHN renal
[15] = system: UACC-257 melanoma
[16] = system: NCI-H226 lung
[17] = system: RXF 393 renal
[18] = system: LXFL 529 NSCLC
[19] = system: SN12C renal
[20] = system: SF-539 CNS
[21] = system: KM20L2 colon
[22] = system: IGROV1 ovarian
[23] = system: CCRF-CEM leukemia
[24] = system: UO-31 renal
[25] = system: HL-60(TB) leukemia
[26] = system: SF-295 CNS
[27] = system: MALME-3M melanoma
[28] = system: 786-0 renal
[29] = system: K-562 leukemia
[30] = system: NCI-H460 lung
[31] = system: OVCAR-8 ovarian
[32] = system: SR leukemia
[33] = system: RXF-631 renal
[34] = system: HCC-2998 colon
[35] = system: HOP-18 NSCLC
[36] = system: SW-620 colon
[37] = system: HCT-15 colon
[38] = system: NCI-H23 lung
[39] = system: HOP-62 NSCLC
[40] = system: OVCAR-3 ovarian
[41] = system: LOX IMVI melanoma
[42] = system: HOP-92 NSCLC
[43] = system: COLO 205 colon
[44] = system: XF 498 CNS
[45] = system: SF-268 CNS
[46] = system: OVCAR-4 ovarian
[47] = system: RPMI-8226 leukemia
[48] = system: U251 CNS
[49] = system: DLD-1 colon
[50] = system: SNB-75 CNS
[51] = system: EKVX NSCLC
[52] = system: DMS 273 small cell lung
[53] = system: KM12 colon
[54] = system: HT29 colon
[55] = system: A498 renal
[56] = system: HCT-116 colon
[57] = system: UACC-62 melanoma
[58] = system: SK-OV-3 ovarian
[59] = system: OVCAR-5 ovarian

**Q.** What does the source list for `COC(=O)C(C(=O)C(=O)Nc1ccc(Br)cc1)c1nc2ccc(Cl)cc2[nH]c1=O` (stereo not given)?
**A.** TGI [1]: > 100 µM; TGI [2]: > 100 µM; TGI [3]: > 100 µM; TGI [4]: > 100 µM; TGI [5]: > 100 µM; TGI [6]: > 100 µM; TGI [7]: > 100 µM; TGI [8]: > 100 µM; TGI [9]: > 100 µM; TGI [10]: > 100 µM; TGI [11]: > 100 µM; TGI [12]: > 100 µM; TGI [13]: > 100 µM; TGI [14]: > 100 µM; TGI [15]: > 100 µM; TGI [16]: > 100 µM; TGI [17]: > 100 µM; TGI [18]: > 100 µM; TGI [19]: > 100 µM; TGI [20]: > 100 µM; TGI [21]: > 100 µM; TGI [22]: > 100 µM; TGI [23]: > 100 µM; TGI [24]: > 100 µM; TGI [25]: > 100 µM; TGI [26]: > 100 µM; TGI [27]: > 100 µM; TGI [28]: > 100 µM; TGI [29]: > 100 µM; TGI [30]: > 100 µM; TGI [31]: > 100 µM; TGI [32]: > 100 µM; TGI [33]: > 100 µM; TGI [34]: > 100 µM; TGI [35]: > 100 µM; TGI [36]: > 41.4 µM; TGI [37]: > 55.9 µM; TGI [38]: > 100 µM; TGI [39]: > 100 µM; TGI [40]: > 100 µM; TGI [41]: > 100 µM; TGI [42]: > 100 µM; TGI [43]: > 61.3 µM; TGI [44]: > 100 µM; TGI [45]: > 100 µM; TGI [46]: > 71.3 µM; TGI [47]: > 100 µM; TGI [48]: > 100 µM; TGI [49]: > 100 µM; TGI [50]: > 100 µM; TGI [51]: > 100 µM; TGI [52]: > 100 µM; TGI [53]: > 100 µM; TGI [54]: > 72.2 µM; TGI [55]: > 100 µM; TGI [56]: > 100 µM; TGI [57]: > 100 µM; TGI [58]: > 100 µM; TGI [59]: > 100 µM

**Q.** `NC(=O)c1ncn2c1NCC1OC2C(O)C1O` (stereo not given) was tested. Which TGI [1] did it give?
**A.** > 100 µM

**Q.** What about the TGI [2] of the same molecule?
**A.** > 100 µM

**Q.** And the TGI [3]?
**A.** > 100 µM

**Q.** What about the TGI [4] of the same molecule?
**A.** > 100 µM

**Q.** And the TGI [5]?
**A.** > 100 µM

**Q.** What about the TGI [6] of the same molecule?
**A.** > 100 µM

**Q.** What about the TGI [7] of the same molecule?
**A.** > 100 µM

**Q.** And the TGI [8]?
**A.** > 100 µM

**Q.** What about the TGI [9] of the same molecule?
**A.** > 100 µM

**Q.** And the TGI [10]?
**A.** > 100 µM

**Q.** What about the TGI [11] of the same molecule?
**A.** > 100 µM

**Q.** What about the TGI [12] of the same molecule?
**A.** > 100 µM

**Q.** What about the TGI [13] of the same molecule?
**A.** > 100 µM

**Q.** What about the TGI [14] of the same molecule?
**A.** > 100 µM

**Q.** And the TGI [15]?
**A.** > 100 µM

**Q.** And the TGI [16]?
**A.** > 100 µM

**Q.** What about the TGI [17] of the same molecule?
**A.** > 100 µM

**Q.** And the TGI [18]?
**A.** > 100 µM

**Q.** And the TGI [19]?
**A.** > 100 µM

**Q.** What about the TGI [20] of the same molecule?
**A.** > 100 µM

**Q.** And the TGI [21]?
**A.** > 100 µM

**Q.** And the TGI [22]?
**A.** > 100 µM

**Q.** What about the TGI [23] of the same molecule?
**A.** > 100 µM

**Q.** What about the TGI [24] of the same molecule?
**A.** > 100 µM

**Q.** And the TGI [25]?
**A.** > 100 µM

**Q.** What about the TGI [26] of the same molecule?
**A.** > 100 µM

**Q.** And the TGI [27]?
**A.** > 100 µM

**Q.** And the TGI [28]?
**A.** > 100 µM

**Q.** And the TGI [29]?
**A.** > 100 µM

**Q.** What about the TGI [31] of the same molecule?
**A.** > 100 µM

**Q.** What about the TGI [32] of the same molecule?
**A.** > 100 µM

**Q.** And the TGI [33]?
**A.** > 100 µM

**Q.** And the TGI [34]?
**A.** > 100 µM

**Q.** What about the TGI [35] of the same molecule?
**A.** > 100 µM

**Q.** And the TGI [36]?
**A.** > 100 µM

**Q.** What about the TGI [38] of the same molecule?
**A.** > 100 µM

**Q.** What about the TGI [39] of the same molecule?
**A.** > 100 µM

**Q.** What about the TGI [40] of the same molecule?
**A.** > 100 µM

**Q.** And the TGI [41]?
**A.** > 100 µM

**Q.** And the TGI [42]?
**A.** > 100 µM

**Q.** And the TGI [43]?
**A.** > 100 µM

**Q.** And the TGI [44]?
**A.** > 100 µM

**Q.** What about the TGI [45] of the same molecule?
**A.** > 100 µM

**Q.** What about the TGI [46] of the same molecule?
**A.** > 100 µM

**Q.** And the TGI [48]?
**A.** > 100 µM

**Q.** What about the TGI [49] of the same molecule?
**A.** > 100 µM

**Q.** And the TGI [50]?
**A.** > 100 µM

**Q.** And the TGI [51]?
**A.** > 100 µM

**Q.** What about the TGI [52] of the same molecule?
**A.** > 100 µM

**Q.** And the TGI [53]?
**A.** > 100 µM

**Q.** What about the TGI [54] of the same molecule?
**A.** > 100 µM

**Q.** What about the TGI [55] of the same molecule?
**A.** > 100 µM

**Q.** What about the TGI [56] of the same molecule?
**A.** > 100 µM

**Q.** And the TGI [57]?
**A.** > 100 µM

**Q.** What about the TGI [58] of the same molecule?
**A.** > 100 µM

**Q.** What about the TGI [59] of the same molecule?
**A.** > 100 µM
